The values that follow come from publication PMC5318439, “The Novel Toll-Like Receptor 2 Agonist SUP3 Enhances Antigen Presentation and T Cell Activation by Dendritic Cells” (Frontiers in Immunology, 2017).

The structures appear in SMILES notation. Where a SMILES comes first, the peptide text is derived from it. The star is where a group is joined. X1 = CCCCCCCCCCCCCCNC(=O)OC[C@H](C*)OC(=O)NCCCCCCCCCCCCCC; Palmitoyl = CCCCCCCCCCCCCCCC(=O)*

In one test the test system is splenic B cells. The experiment in a line: Total IgM production by B cells in vitro. Type of test: cell-based, mice. The settings on record: 200 nM, 3 or 5 days, ELISA; vs Pam3. The text has this:
Splenic DCs were purified as described previously ([37]). CD8^+ cDCs expanded by B16-Flt3L inoculation were enriched, and then CD8^+ cDCs were positively sorted by MACS technology (Miltenyi Biotec). Splenic B cells were purified through negative selection by Streptavidin-MicroBeads (Miltenyi Biotec 130-048-102) combined with different antibodies cocktail to exclude non-B cells. The antibodies cocktail was composed of biotinylated antibodies against CD4 (T cells and DCs) (eBioscience, clone GK1.5), CD8 (T cells and DCs) (eBioscience, clone 53-6.7), CD43 (T cells, monocytes, granulocytes) (eBioscience, clone eBioR2/60), and Ter119 (erythrocytes) (eBioscience, clone TER119). B cells were further purified through MACS LS column (Miltenyi Biotec 130-042-401).
Splenic DCs (5 × 10^5 cells/mL) were stimulated by Pam3 (200 nM), SUP3 (200 nM), or CpG ODN 1668 (20 nM; Adipogen IAX-200-001) in the GM-CSF (20 ng/mL) supplemented medium for indicated periods. […] Cytokines (IL-6, eBioscience 88-7064; TNFα, eBioscience 88-7324; IL-12p40, BioLegend 431604), chemokine (MIP1α, R&D Systems DY450-05), and total IgM (eBioscience, 88-50470) were quantified by ELISA kits following the instructions of manufacturers.
Figure 7 SUP3 promoted stronger B cell activation in vitro. […] (B) Supernatants were harvested 3 or 5 days post-stimulation, and total IgM in the supernatant was determined by ELISA. […]

A further test has as its system GMDCs. The test can be described thus: Cytokine production by GMDCs. Format: cell-based, mice. The settings on record: 200 nM, 24 h, ELISA; SUP3 versus Pam3. How it is done:
Splenic DCs (5 × 10^5 cells/mL) were stimulated by Pam3 (200 nM), SUP3 (200 nM), or CpG ODN 1668 (20 nM; Adipogen IAX-200-001) in the GM-CSF (20 ng/mL) supplemented medium for indicated periods. Cell culture supernatants were harvested at indicated time points and stored at −40°C. RAW 264.7 cells and GMDCs were stimulated by lipopolysaccharide (LPS) (20 ng/mL; Adipogen IAX-100-013), Pam3, or SUP3 (both at 200 nM) for 24 h. For in vivo administration, Pam3 (2 nmol per mouse), SUP3 (2 nmol per mouse), or LPS (1 µg per mouse) were intravenously (i.v.) injected via tail veins. Serum was obtained through tail vein bleeding and centrifuged after coagulation and stored at −40°C. Cytokines (IL-6, eBioscience 88-7064; TNFα, eBioscience 88-7324; IL-12p40, BioLegend 431604), chemokine (MIP1α, R&D Systems DY450-05), and total IgM (eBioscience, 88-50470) were quantified by ELISA kits following the instructions of manufacturers.
Figure 1 Specificity and activity of novel TLR2 agonist SUP3. (A) Schematic chemical structure of SUP3. (B) Surface expression of TLR2 in wild-type (WT) and Tlr2^−/− RAW 264.7 cell lines. Gray shadows represented isotype control and black lines represented TLR2. […] The production of cytokines IL-6 and TNFα in culture supernatant was determined by ELISA. *p < 0.05, ****p < 0.0001, “n.s.” indicates statistically non-significant.

Regarding `CCCCCCCCCCCCCCCC(=O)N[C@@H](CSC[C@@H](COC(=O)NCCCCCCCCCCCCCC)OC(=O)NCCCCCCCCCCCCCC)C(=O)NCC(=O)N[C@@H](CCCCN)C(=O)N[C@@H](CCCCN)C(=O)N[C@@H](CCCCN)C(=O)O` [SUP3, (2S,5S,8S,14R,18R)-2,5,8-tris(4-aminobutyl)-4,7,10,13,21-pentaoxo-14-palmitamido-18-((tetradecylcarbamoyl)oxy)-20-oxa-16-thia-3,6,9,12,22-pentaazahexatriacontan-1-oic acid] (Palmitoyl-C(X1)GKKK-OH), the “antigen-independent production of IgM by B cells” value in the test on splenic B cells is reported as “more”. The “production of IL-6 and TNFα by GMDCs” value with GMDCs is listed as “comparable”.
